Measured values reported in US8519136B2, “Aminopyridine derivatives having aurora a selective inhibitory action” (MSD K.K., priority 2008, dated 2013).
Structures can show the parent of a compound that is named as a salt.

Columns and labels:
[1] = molecular target: T1, His-tagged human Aurora A (Homo sapiens, UniProt O14965); experiment: Aurora A inhibitory activity (IMAP fluorescence polarization); format: biochemical; conditions: 20 μM ATP, 30° C., 120 minutes
T1 construct: His (N); made in house; host or cells: Escherichia coli BL21-CodonPlus(DE3)-RIL
T1 sequence (O14965 1-403): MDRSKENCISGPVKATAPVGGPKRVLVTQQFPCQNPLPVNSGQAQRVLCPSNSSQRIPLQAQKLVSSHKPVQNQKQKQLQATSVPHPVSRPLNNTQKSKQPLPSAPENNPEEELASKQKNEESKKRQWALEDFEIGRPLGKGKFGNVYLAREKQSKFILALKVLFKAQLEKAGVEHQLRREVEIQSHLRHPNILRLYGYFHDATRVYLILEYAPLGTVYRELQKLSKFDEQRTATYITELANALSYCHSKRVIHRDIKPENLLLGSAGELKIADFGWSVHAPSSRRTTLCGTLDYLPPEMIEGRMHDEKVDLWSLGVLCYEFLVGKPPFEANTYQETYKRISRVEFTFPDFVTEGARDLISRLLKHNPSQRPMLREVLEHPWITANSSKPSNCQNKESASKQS
From the text: cDNA of N-terminal His-tagged human Aurora A was integrated into an expression vector, which was then highly expressed in Escherichia coli BL21-CodonPlus(DE3)-RIL cells. The Escherichia coli was harvested and lysed, and then the His-tagged human Aurora A protein was applied onto a nickel chelate column and eluted from the column with imidazole. The active fractions were desalted with a desalting column to give a purified enzyme.
For measurement of the activity of Aurora A, the substrate used was a synthetic peptide (5-FAM (5-carboxyfluorescein)-γ-aminobutyric acid-Ala-Leu-Arg-Arg-Ala-Ser-Leu-Gly-NH2) (SEQ.ID.NO.: 1), which was purchased from Toray Research Center, Inc.
For the phosphorylation reaction, the method by Upstate, Inc. [Kinase Profiler™ Assay Protocols] was referred to, and phosphorylation of the substrate was detected using IMAP® technology (Molecular Devices, Co. Ltd.) (Gaudet E W. et. al, J. Biomol. Screen, 8, 164-175 (2003)). Concretely, the phosphorylation reaction and the detection were carried out as follows:
The phosphorylation reaction was conducted using 384 well plate, and the reaction volume was 10 μl/well. The reaction buffer is comprised of 50 mM Tris-chloride buffer (pH 7.4), 15 mM magnesium acetate, and 0.2 mM ethylenediamine-N,N,N′,N′-tetraacetic acid (EDTA). Thereto, the purified Aurora A protein, 100 nM of the peptide substrate, and 20 μM of adenosine 5′-triphosphate (ATP) were added, and then the reaction was carried out at 30° C. for 120 minutes.
Thereafter, in order to terminate and detect the reaction, 30 μl of the IMAP (registered trademark) binding reagent (IMAP Progressive Binding Reagent, R7284) that had been diluted (1:400) in the 1×IMAP binding buffer A (IMAP Progressive Binding Buffer A, 5× stock, R7282) was added to each well. The solution stood still for 60 minutes in the dark, and then fluorescence polarization was measured using a high-end microplate reader (excitation wavelength: 485 nm; emission wavelength: 520 nm).
(§1) The compound to be tested was added to the reaction system such that a dilution series of the compound in dimethylsulfoxide (DMSO) was prepared, and then 0.5 μL of this solution was added for the testing to each well. Each control well was provided by adding 0.5 μL of DMSO to the well in place of the DMSO solution containing the compound to be tested.

[2] = molecular target: T2, GST-tagged human Aurora B(AurB)/His-tagged human INCENP complex proteins (Homo sapiens, UniProt Q96GD4); experiment: Aurora B inhibitory activity (Method A, IMAP kit); format: biochemical; conditions: 40 μM ATP, 25° C., 45 minutes
T2 construct: GST; purchased Carna Biosciences, Inc
T2 sequence (Q96GD4 whole entry): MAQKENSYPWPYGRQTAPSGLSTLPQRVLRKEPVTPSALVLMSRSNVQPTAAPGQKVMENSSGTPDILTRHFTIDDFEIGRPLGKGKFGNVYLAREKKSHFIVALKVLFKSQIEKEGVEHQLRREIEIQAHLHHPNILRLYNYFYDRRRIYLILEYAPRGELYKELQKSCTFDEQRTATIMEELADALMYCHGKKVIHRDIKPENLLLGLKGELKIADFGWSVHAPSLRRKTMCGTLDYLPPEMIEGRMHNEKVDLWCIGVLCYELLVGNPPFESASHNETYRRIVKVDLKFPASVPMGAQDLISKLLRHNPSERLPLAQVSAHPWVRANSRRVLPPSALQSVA
T2 sequence (Q9NQS7 803-916 partner limits assumed): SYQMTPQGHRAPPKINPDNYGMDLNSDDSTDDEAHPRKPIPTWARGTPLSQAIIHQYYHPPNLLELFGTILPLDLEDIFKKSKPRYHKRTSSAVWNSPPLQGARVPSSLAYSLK
Procedure: An assay development kit for IMAP (registered trademark) (Aurora B), purchased from Carna Biosciences, Inc., was used for phosphorylation reaction, and the phosphorylation of a substrate was detected using the IMAP technology. The assay development kit used is comprised of an assay buffer, GST-tagged human Aurora B(AurB)/His-tagged human INCENP complex proteins (amino acid sequence: 803-916, AAU04398.1), and an ATP/substrate solution. Using the same, the phosphorylation reaction was conducted in accordance with a partially revised protocol attached to the kit, and then the phosphorylation of the substrate was detected using the IMAP technology.
For the phosphorylation reaction, 384 well plate was used, and the reaction volume was 10 μl/well. The composition of the reaction buffer (assay buffer) is comprised of 20 mM of HEPES buffer (pH 7.4), 0.01% Tween-20, and 2 mM of dithiothreitol (DTT). Thereto, AurB/INCENP complex protein, 100 nM of the substrate, and 40 μM of ATP, and 1 mM of magnesium salt were added, and then the reaction was conducted at 25° C. for 45 minutes. Thereafter, in order to terminate and detect the reaction, 30 μl of the IMAP (registered trademark) binding reagent (IMAP Progressive Binding Reagent, R7284) that had been diluted (1:400) in the 1×IMAP binding buffer A (IMAP Progressive Binding Buffer A, 5× stock, R7282) was added to each well. The solution stood still for 60 minutes in the dark, and then fluorescence polarization was measured using a high-end microplate reader (excitation wavelength: 485 nm; emission wavelength: 520 nm).
as §1, with “DMSO” for “dimethylsulfoxide (DMSO)”

[3] = tested on: Human cervical cancer cells (HeLa S3); experiment: Effect by combined use of drugs in cells (with docetaxel), WST-8 method; format: cell-based; conditions: HeLa S3, three days; for inhibition at 0.03 µM: compound 30 nM alone
Procedure: Fetal calf serum (FCS) was purchased from Moregate Biotech, DMEM medium from Invitrogen Corp., docetaxel (tradename: Taxere) from Sigma-Aldrich, Inc., and WST-8 from Kishida Chemical Co., Ltd.
(§2) Human cervical cancer cells (HeLa S3) were obtained from the American Type Culture Collection (ATCC).
Cells were suspended in a DMEM medium containing 10% FCS, and the cell suspension was dispensed to two 96-well plastic plates at a rate of 750 cells/100 microliters per well. The plates were incubated overnight in 5% CO2-95% air at 37° C. A drug was subjected to graded dilution in dimethylsulfoxide and further diluted with DMSO or with a DMEM medium containing 10% FCS and also containing 0.6 nM docetaxel. Then, the dilutions were each dispensed to one of the plates on which cells had been disseminated, at a rate of 100 microliters per well. The final concentration of docetaxel at this stage was 0.3 nM. Also, the concentrations in the case of sole administration of the compound according to the invention were 0.003, 0.01, 0.03, 0.1, 0.3, 1, 3 and 10 μM. The plates were incubated for further three days in 5% CO2-95% air at 37° C. Cell growth after incubation was measured by the WST-8 method (H. Tominaga, et al., Anal. Commun., 36, 47-50 (1999)). Here, the WST-8 method refers to a method in which 20 microliters of a WST-8 reagent solution is added to each well, incubation is conducted at 37° C. for 60 minutes, the plate is stirred, and the amount of formazan produced is measured by a colorimetric method to determine the inhibitory rate of the drug. The growth inhibitory effects of docetaxel and of the compound according to the invention were determined, with the value obtained in sole treatment of DMSO being defined as 0%.

[4] = tested on: Human cervical cancer cells (HeLa S3); experiment: Cell growth inhibitory effect, WST-8 method; format: cell-based; conditions: 72 h, HeLa S3, three days incubation, read-out: Cell growth inhibitory effect (HeLaS3) (IC50)
Procedure: Fetal calf serum (FCS) was purchased from Moregate Biotech, and DMEM medium was purchased from Invitrogen Corp. WST-8 was purchased from Kishida Chemical Co., Ltd.
as §2
Cells were suspended in a DMEM medium containing 10% FCS, and the cell suspension was dispensed to a 96-well plastic plate at a rate of 750 cells/100 microliters per well. The plate was incubated overnight in 5% CO2-95% air at 37° C. A drug was subjected to graded dilution in dimethylsulfoxide and further diluted with a DMEM medium containing 10% FCS. Then, the dilution was dispensed to the plate on which cells had been disseminated, at a rate of 100 microliters per well. The plate was incubated for further three days in 5% CO2-95% air at 37° C. Cell growth after incubation was measured by the WST-8 method (H. Tominaga, et al., Anal. Commun., 36, 47-50 (1999)). Here, the WST-8 method refers to a method in which 20 microliters of a WST-8 reagent solution is added to each well, incubation is conducted at 37° C. for 60 minutes, the plate is stirred, and the amount of formazan produced is measured by a colorimetric method to determine the inhibitory rate of the drug. The concentration for 50% growth inhibition (IC50, μM) of the compound was determined.

[5] = Homo sapiens, HeLa S3, 72 h, read-out: Cell growth inhibitory effect by sole administration of the compound of Example (%)
[6] = compound 30 nM + docetaxel 0.3 nM

How did the IC50 [1] turn out when `O=C(c1cccc(C(F)(F)F)c1F)N1CCC(Cc2cccc(Nc3cc[nH]n3)n2)(c2n[nH]c(=O)o2)CC1` [Example 9, 5-(1-(2-fluoro-3-(trifluoromethyl)benzoyl)-4-((6-(1H-pyrazol-3-ylamino)pyridin-2-yl)methyl)piperidin-4-yl)-1,3,4-oxadiazol-2(3H)-one] was run?
Its IC50 is 0.25 nM.

What about the IC50 [2] of the same compound?
The IC50 was 35.8 nM.

What about the inhibition at 0.03 µM [3, 5] of the same compound?
The inhibition at 0.03 µM was 20.3%.

What about the “Cell growth inhibitory effect by combined administration of docetaxel and the compound of Example (%)” value (shortened to “Cell growth inhibitory effect … (%)”) [3, 6] of the same compound?
Its value is 90.9%.

What about the IC50 [4] of the same compound?
The IC50 was 220 nM.

With `O=C(c1cccc(Cl)c1F)N1CCC(Cc2cccc(Nc3cc[nH]n3)n2)(c2n[nH]c(=O)o2)CC1` [Example 10, 5-(1-(3-chloro-2-fluorobenzoyl)-4-((6-(1H-pyrazol-3-ylamino)pyridin-2-yl)methyl)piperidin-4-yl)-1,3,4-oxadiazol-2(3H)-one trifluoroacetate] as the compound, how does the IC50 [1] read?
Its IC50 is 0.27 nM.

What about the IC50 [2] of the same compound?
Its IC50 is 166 nM.

And the inhibition at 0.03 µM [3, 5]?
The inhibition at 0.03 µM was 3.3%.

And the “Cell growth inhibitory effect … (%)” value [3, 6]?
The value was 84.8%.

What about the IC50 [4] of the same compound?
Its IC50 is 280 nM.

How did the IC50 [1] turn out when `O=C(c1cccc(Cl)c1F)N1CCC(Cc2cc(-c3ccccc3)cc(Nc3cc[nH]n3)n2)(c2n[nH]c(=O)o2)CC1` [Example 17, 5-(1-(3-chloro-2-fluorobenzoyl)-4-((4-phenyl-6-(1H-pyrazol-3-ylamino)pyridin-2-yl)methyl)piperidin-4-yl)-1,3,4-oxadiazol-2(3H)-one] was run?
Its IC50 is 0.3 nM.

What about the IC50 [2] of the same compound?
The IC50 was 381 nM.

What about the inhibition at 0.01 µM ([3]; Homo sapiens, HeLa S3, 72 h, compound 10 nM alone, read-out: Cell growth inhibitory effect by sole administration of the compound of Example (%)) of the same compound?
Its inhibition at 0.01 µM is 4.2%.

What about the “Cell growth inhibitory effect … (%)” value ([3]; compound 10 nM + docetaxel 0.3 nM) of the same compound?
The value was 80.8%.

And the IC50 [4]?
Its IC50 is 100 nM.
